Results as given in patent US11629171B2, “Beta-hairpin peptidomimetics” (POLYPHOR AG, priority 2017, dated 2023).
Converted amounts (≈) assume the structure as drawn. Where a SMILES comes first, the peptide text is derived from it. Bridges are numbered along the chain shown (N, C = ends). Roman numbers before positions name the chains, in order. [ ]: non-standard residue; d: D form. Thr(ol) = C[C@@H](O)[C@H](N)CO; Pen = CC(C)(S)[C@H](N)C(=O)O; Tle = CC(C)(C)[C@H](N)C(=O)O; NMeV = CN[C@H](C(=O)O)C(C)C; Hiv = CC(C)[C@H](O)C(=O)O; dDab = NCC[C@@H](N)C(=O)O; hSer = N[C@@H](CCO)C(=O)O; Dab = NCC[C@H](N)C(=O)O; Dap = NC[C@H](N)C(=O)O

Assays:
Assay type in all cases: cell-based
Escherichia coli 926415 = conditions: 926415
Procedure, shortened: (§1)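 Peptides are tested in serial two-fold dilutions against about 10^6 CFU/mL in MH-II broth containing 0.002% P-80 (v/v, final). Plates incubate 18-20 h at 35° C, and the MIC is the lowest peptide level (μg/mL) showing no visible growth.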

[1] = tested on: Acinetobacter baumannii DSM 30008; conditions: DSM 30008
Procedure, shortened: as §1

[2] = tested on: Enterobacter cloacae 848840; conditions: 848840
Procedure, shortened: as §1

[3] = tested on: Klebsiella pneumoniae SSI #3010; conditions: SSI #3010
Procedure, shortened: as §1

[4] = tested on: Escherichia coli ATCC 25922; conditions: ATCC 25922
Procedure, shortened: as §1

[5] = tested on: Pseudomonas aeruginosa ATCC 27853; conditions: ATCC 27853
Procedure, shortened: as §1

[6] = tested on: Acinetobacter baumannii 872842; conditions: 872842
Procedure, shortened: as §1

[7] = tested on: Klebsiella pneumoniae 968733; conditions: 968733
Procedure, shortened: as §1

[8] = tested on: human red blood cells (hRBC); assay: Hemolysis; conditions: red cells of human, 1 h, 200
Procedure, shortened: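 First, fresh human erythrocytes are washed in PBS; next, they are incubated at 20% (v/v) with compound at 200 μg/mL for 1 h at 37° C. Finally, centrifuged supernatants are diluted and OD540 is taken relative to the Triton X-100 lysis control.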

| SMILES | MIC (Escherichia coli 926415) | MIC [1] | MIC [2] | MIC [3] | MIC [4] | MIC [5] | MIC [6] | MIC [7] | Hemolysis at 200 μg/mL [8] |
| --- | --- | --- | --- | --- | --- | --- | --- | --- | --- |
| CC(=O)N[C@H](C(=O)N[C@@H](CN)C(=O)N[C@@H](Cc1ccc(O)cc1)C(=O)N[C@H]1CSSC[C@@H](C(=O)N[C@H](C(=O)N[C@@H](C)C(=O)N[C@@H](CO)C(N)=O)C(C)(C)C)NC(=O)[C@H](Cc2c[nH]c3ccccc23)NC(=O)[C@H]([C@@H](C)O)NC(=O)[C@@H](CCN)NC(=O)[C@H](CCC(=O)N[C@@H](CCN)C(=O)N[C@H](C(=O)N[C@@H](CCN)C(=O)N[C@H]2CCNC(=O)[C@H]([C@@H](C)O)NC(=O)[C@H](CCN)NC(=O)[C@H](CCN)NC(=O)[C@H](CC(C)C)NC(=O)[C@@H](CC(C)C)NC(=O)[C@H](CCN)NC2=O)[C@@H](C)O)NC1=O)C(C)C [Ex. 179] (I: Ac-V[Dap]YCE[dDab]TWC[Tle]AS-NH2 / II: [Dab]T[Dab][Dab][Dab][dL]L[Dab][Dab]T; disulfide I:4-I:9; amide I:5-II:N; lactam II:4-II:C) | 0.5 µg/mL (≈ 0.207 µM) | 0.0625 µg/mL (≈ 0.0259 µM) | 0.5 µg/mL (≈ 0.207 µM) | 0.25 µg/mL (≈ 0.104 µM) | 0.125 µg/mL (≈ 0.0518 µM) | 0.25 µg/mL (≈ 0.104 µM) | 0.25 µg/mL (≈ 0.104 µM) | 4 µg/mL (≈ 1.66 µM) | <1% |
| CN[C@H](C(=O)N[C@@H](CN)C(=O)N[C@@H](Cc1ccc(O)cc1)C(=O)N[C@@H]1C(=O)N[C@@H](CCC(=O)N[C@@H](CCN)C(=O)N[C@H](C(=O)N[C@@H](CCN)C(=O)N[C@H]2CCNC(=O)[C@H]([C@@H](C)O)NC(=O)[C@H](CCN)NC(=O)[C@H](CCN)NC(=O)[C@H](CC(C)C)NC(=O)[C@@H](CC(C)C)NC(=O)[C@H](CCN)NC2=O)[C@@H](C)O)C(=O)N[C@H](CCN)C(=O)N[C@@H]([C@@H](C)O)C(=O)N[C@@H](Cc2c[nH]c3ccccc23)C(=O)N[C@H](C(=O)N[C@H](C(=O)N[C@@H](C)C(=O)N[C@@H](CO)C(N)=O)C(C)(C)C)CSSC1(C)C)C(C)C [Ex. 181] (I: H-[NMeV][Dap]Y[Pen]E[dDab]TWC[Tle]AS-NH2 / II: [Dab]T[Dab][Dab][Dab][dL]L[Dab][Dab]T; disulfide I:4-I:9; amide I:5-II:N; lactam II:4-II:C) | 2 µg/mL (≈ 0.83 µM) | 0.25 µg/mL (≈ 0.104 µM) | 1 µg/mL (≈ 0.415 µM) | 0.5 µg/mL (≈ 0.207 µM) | 0.25 µg/mL (≈ 0.104 µM) | 0.5 µg/mL (≈ 0.207 µM) | 2 µg/mL (≈ 0.83 µM) | 8 µg/mL (≈ 3.32 µM) | <1% |
| CC(C)C[C@@H]1NC(=O)[C@@H](CC(C)C)NC(=O)[C@H](CCN)NC(=O)[C@@H](NC(=O)[C@H](CCN)NC(=O)[C@@H](NC(=O)[C@H](CCN)NC(=O)CC[C@@H]2NC(=O)[C@@H](NC(=O)[C@H](Cc3ccc(O)cc3)NC(=O)[C@@H](NC(=O)[C@@H](N)C(C)C)[C@@H](C)O)CSSC[C@@H](C(=O)N[C@H](C(=O)N[C@@H](C)C(=O)N[C@@H](CO)C(N)=O)C(C)(C)C)NC(=O)[C@H](Cc3c[nH]c4ccccc34)NC(=O)[C@H]([C@@H](C)O)NC(=O)[C@@H](CCN)NC2=O)[C@@H](C)O)CCNC(=O)[C@H]([C@@H](C)O)NC(=O)[C@H](CCN)NC(=O)[C@H](CCN)NC1=O [Ex. 182] (I: H-VTYCE[dDab]TWC[Tle]AS-NH2 / II: [Dab]T[Dab][Dab][Dab][dL]L[Dab][Dab]T; disulfide I:4-I:9; amide I:5-II:N; lactam II:4-II:C) | 0.5 µg/mL (≈ 0.21 µM) | 0.0625 µg/mL (≈ 0.0262 µM) | 0.125 µg/mL (≈ 0.0524 µM) | 0.125 µg/mL (≈ 0.0524 µM) | 0.03125 µg/mL (≈ 0.0131 µM) | 0.125 µg/mL (≈ 0.0524 µM) | 0.125 µg/mL (≈ 0.0524 µM) | 1 µg/mL (≈ 0.419 µM) | <1% |
| CN[C@H](C(=O)N[C@H](C(=O)N[C@@H](Cc1ccc(O)cc1)C(=O)N[C@H]1CSSC[C@@H](C(=O)N[C@H](C(=O)N[C@@H](C)C(=O)N[C@@H](CO)C(N)=O)C(C)C)NC(=O)[C@H](Cc2c[nH]c3ccccc23)NC(=O)[C@H](CO)NC(=O)[C@@H](CCN)NC(=O)[C@H](CCC(=O)N[C@@H](CCN)C(=O)N[C@H](C(=O)N[C@@H](CCN)C(=O)N[C@H]2CCNC(=O)[C@H]([C@@H](C)O)NC(=O)[C@H](CCN)NC(=O)[C@H](CCN)NC(=O)[C@H](CC(C)C)NC(=O)[C@@H](CC(C)C)NC(=O)[C@H](CCN)NC2=O)[C@@H](C)O)NC1=O)[C@@H](C)O)C(C)C [Ex. 184] (I: H-[NMeV]TYCE[dDab]SWCVAS-NH2 / II: [Dab]T[Dab][Dab][Dab][dL]L[Dab][Dab]T; disulfide I:4-I:9; amide I:5-II:N; lactam II:4-II:C) | 2 µg/mL (≈ 0.844 µM) | 0.125 µg/mL (≈ 0.0527 µM) | 1 µg/mL (≈ 0.422 µM) | 0.25 µg/mL (≈ 0.105 µM) | 0.125 µg/mL (≈ 0.0527 µM) | 0.25 µg/mL (≈ 0.105 µM) | 1 µg/mL (≈ 0.422 µM) | 8 µg/mL (≈ 3.38 µM) | <1% |
| CN[C@H](C(=O)N[C@H](C(=O)N[C@@H](Cc1ccc(O)cc1)C(=O)N[C@H]1CSSC[C@@H](C(=O)N[C@H](C(=O)N[C@@H](C)C(=O)N[C@@H](CO)C(N)=O)C(C)(C)C)NC(=O)[C@H](Cc2c[nH]c3ccccc23)NC(=O)[C@H](CCO)NC(=O)[C@@H](CCN)NC(=O)[C@H](CCC(=O)N[C@@H](CCN)C(=O)N[C@H](C(=O)N[C@@H](CCN)C(=O)N[C@H]2CCNC(=O)[C@H]([C@@H](C)O)NC(=O)[C@H](CCN)NC(=O)[C@H](CCN)NC(=O)[C@H](CC(C)C)NC(=O)[C@@H](CC(C)C)NC(=O)[C@H](CCN)NC2=O)[C@@H](C)O)NC1=O)[C@@H](C)O)C(C)C [Ex. 185] (I: H-[NMeV]TYCE[dDab][hSer]WC[Tle]AS-NH2 / II: [Dab]T[Dab][Dab][Dab][dL]L[Dab][Dab]T; disulfide I:4-I:9; amide I:5-II:N; lactam II:4-II:C) | 0.25 µg/mL (≈ 0.104 µM) | 0.125 µg/mL (≈ 0.0521 µM) | 0.25 µg/mL (≈ 0.104 µM) | 0.125 µg/mL (≈ 0.0521 µM) | 0.125 µg/mL (≈ 0.0521 µM) | 0.125 µg/mL (≈ 0.0521 µM) | 0.25 µg/mL (≈ 0.104 µM) | 1 µg/mL (≈ 0.417 µM) | <1% |
| CC(C)C[C@@H]1NC(=O)[C@@H](CC(C)C)NC(=O)[C@H](CCN)NC(=O)[C@@H](NC(=O)[C@H](CCN)NC(=O)[C@@H](NC(=O)[C@H](CCN)NC(=O)CC[C@@H]2NC(=O)[C@@H](NC(=O)[C@H](Cc3ccc(O)cc3)NC(=O)[C@@H](NC(=O)[C@@H](N)C(C)C)[C@@H](C)O)CSSC[C@@H](C(=O)N[C@H](C(=O)N[C@@H](C)C(=O)N[C@@H](CO)C(=O)O)C(C)(C)C)NC(=O)[C@H](Cc3c[nH]c4ccccc34)NC(=O)[C@H]([C@@H](C)O)NC(=O)[C@@H](CCN)NC2=O)[C@@H](C)O)CCNC(=O)[C@H]([C@@H](C)O)NC(=O)[C@H](CCN)NC(=O)[C@H](CCN)NC1=O [Ex. 186] (I: H-VTYCE[dDab]TWC[Tle]AS-OH / II: [Dab]T[Dab][Dab][Dab][dL]L[Dab][Dab]T; disulfide I:4-I:9; amide I:5-II:N; lactam II:4-II:C) | 1 µg/mL (≈ 0.419 µM) | 0.0625 µg/mL (≈ 0.0262 µM) | 0.25 µg/mL (≈ 0.105 µM) | 0.125 µg/mL (≈ 0.0524 µM) | 0.125 µg/mL (≈ 0.0524 µM) | 0.125 µg/mL (≈ 0.0524 µM) | 0.25 µg/mL (≈ 0.105 µM) | 8 µg/mL (≈ 3.35 µM) | <1% |
| CC(C)C[C@@H]1NC(=O)[C@@H](CC(C)C)NC(=O)[C@H](CCN)NC(=O)[C@@H](NC(=O)[C@H](CCN)NC(=O)[C@@H](NC(=O)[C@H](CCN)NC(=O)CC[C@@H]2NC(=O)[C@@H](NC(=O)[C@H](Cc3ccc(O)cc3)NC(=O)[C@H](CCC(=O)O)NC(=O)[C@@H](O)C(C)C)CSSC[C@@H](C(=O)N[C@H](C(=O)N[C@@H](CCCCN)C(=O)N[C@H](CO)[C@@H](C)O)C(C)(C)C)NC(=O)[C@H](Cc3c[nH]c4ccccc34)NC(=O)[C@H]([C@@H](C)O)NC(=O)[C@@H](CCN)NC2=O)[C@@H](C)O)CCNC(=O)[C@H]([C@@H](C)O)NC(=O)[C@H](CCN)NC(=O)[C@H](CCN)NC1=O [Ex. 189] (I: H-[Hiv]EYCE[dDab]TWC[Tle]K[Thr(ol)] / II: [Dab]T[Dab][Dab][Dab][dL]L[Dab][Dab]T; disulfide I:4-I:9; amide I:5-II:N; lactam II:4-II:C) | 1 µg/mL (≈ 0.405 µM) | 0.125 µg/mL (≈ 0.0506 µM) | 0.25 µg/mL (≈ 0.101 µM) | 0.125 µg/mL (≈ 0.0506 µM) | 0.125 µg/mL (≈ 0.0506 µM) | 0.25 µg/mL (≈ 0.101 µM) | 0.5 µg/mL (≈ 0.202 µM) | 4 µg/mL (≈ 1.62 µM) | <1% |
